Assay results taken from patent US11957759B1, “Rapidly accelerated fibrosarcoma (RAF) degrading compounds and associated methods of use” (Arvinas Operations, Inc., priority 2022, dated 2024).

Key:
[1] = biological target: T1, B-RAF G466V (Homo sapiens, UniProt P15056, G466V); assay: Target protein degradation, assay D: T-Rex 293 cells, HA-BRAF_G466V, 384 well format; type: cell-based; conditions: T-Rex 293 HA-BRAF_G466V cells, 24 hours, Examples 83-269; for Dmax: T-REx-293, Assay D
T1 construct: expressed in transfected cells; host or cells: T-Rex 293 cells (Invitrogen #R71007)
T1 sequence (P15056 whole entry G466V): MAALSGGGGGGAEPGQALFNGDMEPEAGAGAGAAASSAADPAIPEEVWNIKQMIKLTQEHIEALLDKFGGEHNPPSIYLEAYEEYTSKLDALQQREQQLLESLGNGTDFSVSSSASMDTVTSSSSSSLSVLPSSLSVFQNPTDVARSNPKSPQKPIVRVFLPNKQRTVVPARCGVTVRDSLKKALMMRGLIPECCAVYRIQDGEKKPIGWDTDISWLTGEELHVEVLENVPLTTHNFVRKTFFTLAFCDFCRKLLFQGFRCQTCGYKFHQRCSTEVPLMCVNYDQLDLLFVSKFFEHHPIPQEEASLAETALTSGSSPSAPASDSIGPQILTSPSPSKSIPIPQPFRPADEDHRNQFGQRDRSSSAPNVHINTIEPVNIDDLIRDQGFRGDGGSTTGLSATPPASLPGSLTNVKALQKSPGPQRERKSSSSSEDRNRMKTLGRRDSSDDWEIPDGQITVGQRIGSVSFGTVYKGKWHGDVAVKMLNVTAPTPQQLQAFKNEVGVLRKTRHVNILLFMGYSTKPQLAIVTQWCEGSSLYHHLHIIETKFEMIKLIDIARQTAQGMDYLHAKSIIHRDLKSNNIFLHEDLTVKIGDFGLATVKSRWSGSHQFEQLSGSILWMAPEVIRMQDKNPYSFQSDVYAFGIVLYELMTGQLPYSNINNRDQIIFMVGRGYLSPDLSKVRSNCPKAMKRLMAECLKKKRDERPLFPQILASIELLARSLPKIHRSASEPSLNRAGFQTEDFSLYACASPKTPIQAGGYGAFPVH
Procedure: D. T-Rex 293 Cells (384 Well Format)
(§1) T-Rex 293 cells were purchased from Invitrogen (#R71007), and stably transfected with a pcDNA4/TO_HA-BRAF_G466V construct, using 400 ug Zeocin for selection. G466V cells are plated in DMEM media (Gibco #11965118) containing 10% FBS (Gibco #16000044), 1% penicillin-streptomycin (ThermoFisher #15140122), 1:250 zeocin (Invitrogen #R-25005), and 1 ng/mL doxycycline (Selleckchem #4163) at a density of 7,500 cells/well in 45 μl on PDL coated, black clear bottom 384 well plates (Corning #354663) and incubated at 37° C.+5% CO2 for 24 hours. The following day, PROTAC compounds in a 1:3 11 point dilution are diluted into DMEM media using an Agilent Bravo. 5 ul of PROTACs suspended in DMEM media are added to the cells, with a final assay concentration ranging from 300 nM to 5 pM in 0.5% DMSO. Plates are incubated at 37° C.+5% CO2 for 24 hours. At the end of treatment, media is aspirated, and cells are fixed in 50 uL 4% PFA (EMS #15710) in PBS++(PBS, 1 mM CaCl, 1 mM MgCl) at RT for 15 minutes. Cells are washed 2× with 60 uL PBS++ and permeabilized in 50 uL 1% Triton X-100 (Sigma #93443) in PBS++ for 5 minutes at RT. Cells are washed in PBS++ prior to blocking with 50 uL Licor blocking buffer (Licor #927-60001) for 1 hour at RT. HA-tagged BRAF was stained using 50 uL HA antibody (CST #3724) at 1:1000 in Licor blocking buffer for two hours at RT. Primary is aspirated before adding 50 ul of secondary antibody solution containing 1:1000 Hoechst (ThermoFisher #62249), 1:1000 HCS CellMask Deep Red Stain (ThermoFisher #H32721), and 1:5000 goat anti-rabbit IgG Alexa-Fluor 488 (ThermoFisher #A32731) in PBS++ for 1 hr at RT. Plates are washed 4× with 60 uL PBS++, then sealed with Adhesive Black Light Absorbing Film (VWR #89087-692) and imaged on the ThermoFisher CX7 PRO high content instrument. BRAF intensity is quantified in HCS Studio software (ThermoFisher), using a custom script, exported, analyzed using KNIME, and curve curation is performed in an ELN (Scilligence). Cell toxicity is measured via comparing number of nuclei in PROTAC treated wells to DMSO controls.
(§2) The concentration of an exemplary compound that leads to half maximal degradation (DC50) as well as the maximum degradation observed (Dmax, conventionally expressed as a percentage of control) is shown below in Table 2.

[2] = biological target: T2, B-RAF V600E (Homo sapiens, UniProt P15056, V600E); assay: Target protein degradation, assay C: T-Rex 293 cells, HA-BRAF_V600E, 384 well format; type: cell-based; conditions: T-Rex 293 HA-BRAF_V600E cells, 24 hours, Examples 83-269; for DC50: Assay C; for Dmax: T-REx-293, Assay C
T2 construct: expressed in transfected cells; host or cells: T-Rex 293 cells (Invitrogen #R71007)
T2 sequence (P15056 whole entry V600E): as the sequence (P15056 whole entry G466V) above, with V466G, V600E counted along it
Procedure: C. T-Rex 293 Cells (384 Well Format)
as §1, with “pcDNA4/TO_HA-BRAF_V600E” for “pcDNA4/TO_HA-BRAF_G466V”, “V600E” for “G466V”
as §2

SMILES | DC50 ([1]; Assay D) [nM] | Dmax [1] [%] | DC50 [2] [nM] | Dmax [2] [%] | B-RAF G466V DMax (%) ([1]; Assay D)
N#Cc1c(NS(=O)(=O)N2CC[C@@H](F)C2)ccc(F)c1Oc1ccc2ncn(-c3cnc(C4(N5CCN(CC6CN(c7ccc8c(c7)CN(C7CCC(=O)NC7=O)C8=O)C6)CC5)CC4)nc3)c(=O)c2c1 (stereo partly drawn) [Example 99, (3R)-N-(2-cyano-3-{[3-(2-{1-[4-({1-[2-(2,6-dioxopiperidin-3-yl)-1-oxo-2,3-dihydro-1H-isoindol-5-yl]azetidin-3-yl}methyl)piperazin-1-yl]cyclopropyl}pyrimidin-5-yl)-4-oxo-3,4-dihydroquinazolin-6-yl]oxy}-4-fluorophenyl)-3-fluoropyrrolidine-1-sulfonamide] | 1 to 10 | 35 to 70 | 50 to 500 | 35 to 70 | 
N#Cc1c(NS(=O)(=O)N2CC[C@@H](F)C2)ccc(F)c1Oc1ccc2ncn(-c3ccc(N4CCC5(CCN(CC6CCN(c7ccc8c(c7)C(=O)N(C7CCC(=O)NC7=O)C8=O)CC6)CC5)CC4)nc3)c(=O)c2c1 (stereo partly drawn) [Example 145, (3R)-N-{2-cyano-3-[(3-{6-[9-({1-[2-(2,6-dioxopiperidin-3-yl)-1,3-dioxo-2,3-dihydro-1H-isoindol-5-yl]piperidin-4-yl}methyl)-3,9-diazaspiro[5.5]undecan-3-yl]pyridin-3-yl}-4-oxo-3,4-dihydroquinazolin-6-yl)oxy]-4-fluorophenyl}-3-fluoropyrrolidine-1-sulfonamide] | 1 to 10 | 35 to 70 | 50 to 500 | 35 to 70 | 
N#Cc1c(NS(=O)(=O)N2CC[C@@H](F)C2)ccc(F)c1Oc1ccc2ncn(-c3cnc(N4CC5(CN(CC6CCN(c7ccc8c(c7)C(=O)N(C7CCC(=O)NC7=O)C8=O)CC6)C5)C4)nc3)c(=O)c2c1 (stereo partly drawn) [Example 134, (3R)-N-{2-cyano-3-[(3-(2-[6-({1-[2-(2,6-dioxopiperidin-3-yl)-1,3-dioxo-2,3-dihydro-1H-isoindol-5-yl]piperidin-4-yl}methyl)-2,6-diazaspiro[3.3]heptan-2-yl]pyrimidin-5-yl}-4-oxo-3,4-dihydroquinazolin-6-yl)oxy]-4-fluorophenyl}-3-fluoropyrrolidine-1-sulfonamide] | 1 to 10 | 35 to 70 | 50 to 500 | 35 to 70 | 
CN(c1ccc2c(c1)CN([C@H]1CCC(=O)NC1=O)C2=O)[C@H]1CC[C@H](N2CCN(c3ccc(-n4cnc5ccc(Oc6c(F)ccc(NS(=O)(=O)N7CC[C@@H](F)C7)c6C#N)cc5c4=O)cc3)CC2)CC1 [Example 231, (3R)-N-(2-cyano-4-fluoro-3-{[4-oxo-3-(4-(4-[(1s,4s)-4-({2-[(3S)-2,6-dioxopiperidin-3-yl]-1-oxo-2,3-dihydro-1H-isoindol-5-yl}(methyl)amino)cyclohexyl]piperazin-1-yl}phenyl)-3,4-dihydroquinazolin-6-yl]oxy}phenyl)-3-fluoropyrrolidine-1-sulfonamide] | 1 to 10 | 35 to 70 | 50 to 500 | 35 to 70 | 
N#Cc1c(NS(=O)(=O)N2CC[C@@H](F)C2)ccc(F)c1Oc1ccc2ncn(-c3cnc(N4CCN(CCN5CCN(c6ccc(C7CCC(=O)NC7=O)cc6F)CC5)CC4)nc3)c(=O)c2c1 (stereo partly drawn) [Example 175, (3R)-N-{2-cyano-3-[(3-{2-[4-(2-{4-[4-(2,6-dioxopiperidin-3-yl)-2-fluorophenyl]piperazin-1-yl}ethyl)piperazin-1-yl]pyrimidin-5-yl}-4-oxo-3,4-dihydroquinazolin-6-yl)oxy]-4-fluorophenyl}-3-fluoropyrrolidine-1-sulfonamide] | 1 to 10 | 35 to 70 | 5 to 50 | 35 to 70 | 
CN(CC1CCN(c2ccc(-n3cnc4ccc(Oc5c(F)ccc(NS(=O)(=O)N6CC[C@@H](F)C6)c5C#N)cc4c3=O)cn2)CC1)[C@H]1C[C@H](Oc2ccc3c(c2)C(=O)N([C@@H]2CCC(=O)NC2=O)C3=O)C1 [Example 166, (3R)-N-{2-cyano-4-fluoro-3-[(3-{6-[4-({methyl[(1r,3r)-3-{[2-(2,6-dioxopiperidin-3-yl)-1,3-dioxo-2,3-dihydro-1H-isoindol-5-yl]oxy}cyclobutyl]amino}methyl)piperidin-1-yl]pyridin-3-yl}-4-oxo-3,4-dihydroquinazolin-6-yl)oxy]phenyl}-3-fluoropyrrolidine-1-sulfonamide] | 1 to 10 |  | > 500 |  | C (C ≤ 35)
N#Cc1c(NS(=O)(=O)N2CC[C@@H](F)C2)ccc(F)c1Oc1ccc2ncn(-c3cnc(N4CCC(CN5CCC6(CC5)CN(c5cccc7c5CN(C5CCC(=O)NC5=O)C7=O)C6)CC4)nc3)c(=O)c2c1 (stereo partly drawn) [Example 131, (3R)-N-{2-cyano-3-[(3-{2-[4-({2-[2-(2,6-dioxopiperidin-3-yl)-1-oxo-2,3-dihydro-1H-isoindol-4-yl]-2,7-diazaspiro[3.5]nonan-7-yl}methyl)piperidin-1-yl]pyrimidin-5-yl}-4-oxo-3,4-dihydroquinazolin-6-yl)oxy]-4-fluorophenyl}-3-fluoropyrrolidine-1-sulfonamide] | 1 to 10 | ≤ 35 | 50 to 500 | 35 to 70 | 
N#Cc1c(NS(=O)(=O)N2CC[C@@H](F)C2)ccc(F)c1Oc1ccc2ncn(-c3ccc(C4CCN(CC5CN(c6ccc7c(c6Cl)CN([C@H]6CCC(=O)NC6=O)C7=O)C5)CC4)cc3)c(=O)c2c1 [Example 258, (3R)-N-(3-{[3-(4-{1-[(1-{4-chloro-2-[(3S)-2,6-dioxopiperidin-3-yl]-1-oxo-2,3-dihydro-1H-isoindol-5-yl}azetidin-3-yl)methyl]piperidin-4-yl}phenyl)-4-oxo-3,4-dihydroquinazolin-6-yl]oxy}-2-cyano-4-fluorophenyl)-3-fluoropyrrolidine-1-sulfonamide] | 1 to 10 | 35 to 70 | 50 to 500 | 35 to 70 | 
